Test results from patent publication US20220296627A1, “Cytidine Derivatives and Methods of Forming Cytidine Derivatives” (Aenorasis Commercial Company of Pharmaceutical and Medical …, priority 2019, published 2022).

Assays:
[1] = tested on: A549/WT wild type human lung adenocarcinoma cell line; assay: Cell growth assay (SRB) in A549/WT; type: cell-based
Method: (§1) Biological activities of the Gemcitabine derivative (which may be referred to as analogues) described above were evaluated with two assays: • 1. Cell growth assay using the SRB assay in cell lines A549/WT, SW1573/WT, PANC-01 and BXPC-3. • 2. MTT assay in human bladder cancer cell line T-24
(§2) The following cell lines were tested: • A549/WT —wild type human lung adenocarcinoma cell line (1) • SW1573/WT —wild type non-small lung human cell line (2), • PANC-01—human pancreatic cancer cell line (3) • BXPC-3 -epithelial human pancreatic adenocarcinoma cells (4).
(§3) Dipyridamole inhibits adenosine uptake by erythrocytes platelets and endothelial cells in vitro and in vivo. Thus, the present inventors recruited dipyridamole as an inhibitor of the nucleoside transporters of the tumour cells to observe the behaviour of the presently described Gemcitabine derivatives.
(§4) From the IC50 of each compound in the presence of dipyridamole, by dividing it with the IC50 of each compound in the absence of dipyridamole, the present inventors calculated a ratio that compared the efficacy of the analogous presence of dipyridamole.
(§5) Ratio=IC50 in the presence of dipyridamole/IC50 in the absence of dipyridamole • FIG. 10. Ratio of IC50 of 4-N-acyl and 4-N-phosphoryl derivatives in the presence of, compared to in the absence of, dipyridamole, in four cell lines

[2] = tested on: SW1573/WT wild type non-small lung human cell line; assay: Cell growth assay (SRB) in SW1573/WT; type: cell-based
Method: as §1, §2, §3, §4, §5

[3] = tested on: PANC-01 human pancreatic cancer cell line; assay: Cell growth assay (SRB) in PANC-01; type: cell-based
Method: as §1, §2, §3, §4, §5

[4] = tested on: BXPC-3 epithelial human pancreatic adenocarcinoma cells; assay: Cell growth assay (SRB) in BXPC-3; type: cell-based
Method: as §1, §2, §3, §4, §5

Human plasma stability = type: in vitro ADME; conditions: 37° C., 24 hours incubation, 0.1 μM, triplicates
Method: Human plasma stability of 4-N-ethyl carbamate
1. The final concentration of 4-N-ethyl carbamate Gemcitabine in human plasma was 0.1 μM.
2. Each sample was studied in triplicates.
3. The time points during incubation in which the present inventors evaluated the concentration of derivative were: 0, 1, 2, 4, 18 and 24 hours (FIG. 16). The derivative was stable after 24 hours incubation (96% still remaining).
4. A calibration curve was designed in order to quantify the concentration of derivative in human plasma (FIG. 17). Five calibrators were used at concentrations range of 0.01, 0.05, 0.1, 0.2 and 0.4 μM. Coefficient of determination (r^2) was calculated 0.999418.
5. Accuracy in terms of trueness and precision was evaluated through the analysis of three replicates at three concentration levels (low: 0.025 μM, mid: 0.08 μM and high: 0.3 μM). The trueness was expressed as the percentage difference between the calculated concentrations and the theoretical prepared concentrations while precision was expressed as CV%.
6. LOQ was determined at 0.01 μM with trueness and precision 8.49% and 9.66% respectively and within the acceptable limits for LOQ (<20%).
FIG. 17. In vitro stability of Ethyl-(4-N-Gemcitabine) carbamate (derivative 1) after 24 h incubation in human plasma at 37° C.

CCOC(=O)Nc1ccn(C2OC(CO)C(O)C2(F)F)c(=O)n1 (stereo not drawn) [Derivative 1, Ethyl-(4-N-Gemcitabine) carbamate]
Ratio of IC50 in the presence of dipyridamole / IC50 in the absence of dipyridamole ([1]; A549/WT, 4-N-acyl and 4-N-phosphoryl derivatives (Table 5)): 16.2
IC50 ([1]; Homo sapiens, A549, A549/WT, 4-N-acyl and 4-N-phosphoryl derivatives (Table 4)): 1600 nM
IC50 ([2]; Homo sapiens, SW1573, SW 1573/WT, 4-N-acyl and 4-N-phosphoryl derivatives (Table 4)): 1150 nM
Ratio of IC50 in the presence of dipyridamole / IC50 in the absence of dipyridamole ([2]; SW 1573/WT, 4-N-acyl and 4-N-phosphoryl derivatives (Table 5)): 21
Ratio of IC50 in the presence of dipyridamole / IC50 in the absence of dipyridamole ([3]; 4-N-acyl and 4-N-phosphoryl derivatives (Table 5)): 4.1
IC50 ([3]; Homo sapiens, Pancreatic cancer cell, 4-N-acyl and 4-N-phosphoryl derivatives (Table 4)): 3900 nM
Ratio of IC50 in the presence of dipyridamole / IC50 in the absence of dipyridamole ([4]; BXPC-3, 4-N-acyl and 4-N-phosphoryl derivatives (Table 5)): 23.2
IC50 ([4]; Homo sapiens, BXPC-3, BXPC-3, 4-N-acyl and 4-N-phosphoryl derivatives (Table 4)): 860 nM
still remaining after incubation in human plasma (Human plasma stability): 96%
